For 36 molecules, IC50 results are on record in patent US8946203B2, “Benzodioxane inhibitors of leukotriene production” (Boehringer Ingelheim International GmbH, priority 2012, dated 2015).

As usually defined, the pIC50 is the IC50 on a negative log10 scale, so that one unit is a factor of ten.

pIC50: −log10 of the molar value.

One test deals with T1, human LTA4 hydrolase (Homo sapiens, UniProt P09960).
T1 sequence (P09960 1-611): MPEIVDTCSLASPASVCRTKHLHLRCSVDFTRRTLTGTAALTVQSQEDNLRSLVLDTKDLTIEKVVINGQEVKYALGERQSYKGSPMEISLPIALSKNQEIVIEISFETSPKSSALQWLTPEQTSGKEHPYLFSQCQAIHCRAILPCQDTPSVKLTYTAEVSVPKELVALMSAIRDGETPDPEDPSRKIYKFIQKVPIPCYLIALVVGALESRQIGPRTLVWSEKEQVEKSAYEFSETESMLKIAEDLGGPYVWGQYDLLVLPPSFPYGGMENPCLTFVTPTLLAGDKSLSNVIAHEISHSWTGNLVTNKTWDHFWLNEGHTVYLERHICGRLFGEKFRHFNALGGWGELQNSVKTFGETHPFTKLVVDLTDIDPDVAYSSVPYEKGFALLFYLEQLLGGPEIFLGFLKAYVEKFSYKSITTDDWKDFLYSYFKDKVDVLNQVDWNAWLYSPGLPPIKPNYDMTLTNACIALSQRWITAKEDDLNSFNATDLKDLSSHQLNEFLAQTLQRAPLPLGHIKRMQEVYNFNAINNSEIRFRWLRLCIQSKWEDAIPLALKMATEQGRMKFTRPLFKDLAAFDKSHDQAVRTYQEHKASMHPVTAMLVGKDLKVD
Kind of test: LTA4H Enzyme assay (cleavage of Arg-AMC, fluorescence). It counts as biochemical.
Settings: not given
The protocol:
The compounds of the invention are assessed for the ability to interact with human LTA4 hydrolase in an enzymatic assay that measures the ability of the enzyme to cleave the peptide bond of arginyl-aminomethylcoumarin (Arg-AMC). LTA4H Enzyme (1 nM final), Arg-AMC substrate (50 μM final), and compound are combined in a reaction buffer (50 mM Tris-HCl (pH 7.5), 100 mM KCl, 0.5% bovine serum albumin) at room temperature for 1 h. The formation of product is assessed by measuring the fluorescence of aminomethylcoumarin product (excitation wavelength 380 nm/emission wavelength 460 nm).
`CN(C)CCN(C)Cc1ccc([C@H]2COc3ccccc3O2)cc1` [Example 79, N-{4-[(2S)-2,3-dihydro-1,4-benzodioxin-2-yl]benzyl}-N,N′,N′-trimethylethane-1,2-diamine] had a pIC50 of 9.29.

`COC1CCN(Cc2ccc([C@H]3COc4ccccc4O3)cc2)CC1` [Example 98, 1-{4-[(2S)-2,3-dihydro-1,4-benzodioxin-2-yl]benzyl}-4-methoxypiperidine]: the pIC50 is 9.21.

The same test, now with this note: LTA4H Enzyme 1 nM, Arg-AMC substrate 50 μM, room temperature 1 h, fluorescence; read-out: IC50 values of LTA4H Enzyme assay.
Consider `O=C(O)[C@@H]1CC[C@H](NCc2ccc([C@H]3COc4ccccc4O3)cc2)C1` [Example 57, (1R,3S)-3-({4-[(2S)-2,3-dihydro-1,4-benzodioxin-2-yl]benzyl}amino)cyclopentane-carboxylic acid], for which the pIC50 was 7.86.

With `CC(C)(C)C(CC(=O)O)NCc1ccc([C@H]2COc3ccccc3O2)cc1` (stereo partly drawn) [Example 58, 3-({4-[(2S)-2,3-dihydro-1,4-benzodioxin-2-yl]benzyl}amino)-4,4-dimethylpentanoic acid], the pIC50 is 8.87.

As for `O=C(O)C1(NCc2ccc([C@H]3COc4ccccc4O3)cc2)CCCC1` [Example 59, 1-({4-[(2S)-2,3-dihydro-1,4-benzodioxin-2-yl]benzyl}amino)cyclopentane-carboxylic acid], the pIC50 is 7.05.

For `CN(CC(=O)O)Cc1ccc([C@H]2COc3ccccc3O2)cc1` [Example 60, N-{4-[(2S)-2,3-dihydro-1,4-benzodioxin-2-yl]benzyl}-N-methylglycine], the pIC50 was 7.51.

For the molecule `CC(=O)N1CC[C@H](NCc2ccc([C@H]3COc4ccccc4O3)cc2)C1` [Example 65, 1-[(3S)-3-({4-[(2S)-2,3-dihydro-1,4-benzodioxin-2-yl]benzyl}amino)pyrrolidin-1-yl]ethanone], the pIC50 is 8.94.

In the case of `NC(=O)[C@H]1CC[C@H](NCc2ccc([C@H]3COc4ccccc4O3)cc2)CC1` [Example 66, trans-4-({4-[(2S)-2,3-dihydro-1,4-benzodioxin-2-yl]benzyl}amino)cyclohexane-carboxamide], the pIC50 is 8.75.

In the case of `OCCC1CCN(Cc2ccc([C@H]3COc4ccccc4O3)cc2)CC1` [Example 70, 2-(1-{4-[(2S)-2,3-dihydro-1,4-benzodioxin-2-yl]benzyl}piperidin-4-yl)ethanol], the pIC50 was 9.24.

`CC(C)NCc1ccc([C@H]2COc3ccccc3O2)cc1` [Example 71, N-{4-[(2S)-2,3-dihydro-1,4-benzodioxin-2-yl]benzyl}propan-2-amine]: the pIC50 was 8.73.

In the case of `COCC(C)NCc1ccc([C@H]2COc3ccccc3O2)cc1` (stereo partly drawn) [Example 72, N-{4-[(2S)-2,3-dihydro-1,4-benzodioxin-2-yl]benzyl}-1-methoxypropan-2-amine], the pIC50 was 8.74.

For `CCCNCc1ccc([C@H]2COc3ccccc3O2)cc1` [Example 73, N-{4-[(2S)-2,3-dihydro-1,4-benzodioxin-2-yl]benzyl}propan-1-amine], the pIC50 is 8.44.

With `CCN(C)Cc1ccc([C@H]2COc3ccccc3O2)cc1` [Example 74, N-{4-[(2S)-2,3-dihydro-1,4-benzodioxin-2-yl]benzyl}-N-methylethanamine], the pIC50 was 9.00.

Regarding `CN(C)Cc1ccc([C@H]2COc3ccccc3O2)cc1` [Example 75, 1-{4-[(2S)-2,3-dihydro-1,4-benzodioxin-2-yl]phenyl}-N,N-dimethylmethanamine], the pIC50 was 8.35.

In the case of `O[C@H]1CC[C@H](NCc2ccc([C@H]3COc4ccccc4O3)cc2)CC1` [Example 76, trans-4-({4-[(2S)-2,3-dihydro-1,4-benzodioxin-2-yl]benzyl}amino)cyclohexanol], the pIC50 is 8.72.

For `CC1CCCN1Cc1ccc([C@H]2COc3ccccc3O2)cc1` (stereo partly drawn) [Example 77, 1-{4-[(2S)-2,3-dihydro-1,4-benzodioxin-2-yl]benzyl}-2-methylpyrrolidine], the pIC50 was 9.74.

Consider `OC1CCCN(Cc2ccc([C@H]3COc4ccccc4O3)cc2)C1` (stereo partly drawn) [Example 78, 1-{4-[(2S)-2,3-dihydro-1,4-benzodioxin-2-yl]benzyl}piperidin-3-ol], for which the pIC50 was 8.85.

In the case of `OCCN(Cc1ccc([C@H]2COc3ccccc3O2)cc1)C1CCCCC1` [Example 80, 2-(cyclohexyl{4-[(2S)-2,3-dihydro-1,4-benzodioxin-2-yl]benzyl}amino)ethanol], the negative logarithm of the IC50 (pIC50) was 9.15.

Take `CC(=O)NC1CCN(Cc2ccc([C@H]3COc4ccccc4O3)cc2)C1` (stereo partly drawn) [Example 82, N-(1-{4-[(2S)-2,3-dihydro-1,4-benzodioxin-2-yl]benzyl}pyrrolidin-3-yl)acetamide]: the pIC50 was 9.70.

On to `c1ccc2c(c1)OC[C@H](c1ccc(CN3CCC[C@H]4CCCC[C@@H]43)cc1)O2` [Example 85, (4aR,8aS)-1-{4-[(2S)-2,3-dihydro-1,4-benzodioxin-2-yl]benzyl}decahydroquinoline], for which the pIC50 is 9.35.

Consider `NC(=O)[C@H]1CCCC[C@H]1NCc1ccc([C@H]2COc3ccccc3O2)cc1` [Example 86, (1S,2R)-2-({4-[(2S)-2,3-dihydro-1,4-benzodioxin-2-yl]benzyl}amino)cyclohexane-carboxamide], for which the pIC50 was 9.04.

As for `O[C@@H]1CCN(Cc2ccc([C@H]3COc4ccccc4O3)cc2)C1` [Example 88, (3R)-1-{4-[(2S)-2,3-dihydro-1,4-benzodioxin-2-yl]benzyl}pyrrolidin-3-ol], the pIC50 was 9.27.

In the case of `OC[C@@H]1CCCC[C@H]1NCc1ccc([C@H]2COc3ccccc3O2)cc1` [Example 89, [(1R,2R)-2-({4-[(2S)-2,3-dihydro-1,4-benzodioxin-2-yl]benzyl}amino)cyclohexyl]methanol], the negative-log IC50 (pIC50) was 8.85.

As to `OCC1CCN(Cc2ccc([C@H]3COc4ccccc4O3)cc2)CC1` [Example 90, (1-{4-[(2S)-2,3-dihydro-1,4-benzodioxin-2-yl]benzyl}piperidin-4-yl)methanol], the pIC50 was 9.11.

As for `O[C@H]1CCN(Cc2ccc([C@H]3COc4ccccc4O3)cc2)C1` [Example 91, (3S)-1-{4-[(2S)-2,3-dihydro-1,4-benzodioxin-2-yl]benzyl}pyrrolidin-3-ol], the pIC50 is 9.27.

On to `O=C1CN(Cc2ccc([C@H]3COc4ccccc4O3)cc2)CN1` [Example 92, 1-{4-[(2S)-2,3-dihydro-1,4-benzodioxin-2-yl]benzyl}imidazolidin-4-one], for which the pIC50 was 7.44.

Turning to `CN(C)C1CCN(Cc2ccc([C@H]3COc4ccccc4O3)cc2)C1` (stereo partly drawn) [Example 93, 1-{4-[(2S)-2,3-dihydro-1,4-benzodioxin-2-yl]benzyl}-N,N-dimethylpyrrolidin-3-amine], the pIC50 was 8.70.

Take `O=C1CCCCN1C1CCN(Cc2ccc([C@H]3COc4ccccc4O3)cc2)CC1` [Example 94, 1′-{4-[(2S)-2,3-dihydro-1,4-benzodioxin-2-yl]benzyl}-1,4′-bipiperidin-2-one]: the pIC50 is 9.35.

For the molecule `c1ccc2c(c1)OC[C@H](c1ccc(CN(CC3CC3)C3CCCCC3)cc1)O2` [Example 95, N-(cyclopropylmethyl)-N-{4-[(2S)-2,3-dihydro-1,4-benzodioxin-2-yl]benzyl}cyclohexanamine], the pIC50 is 9.31.

`O=C(NCCO)C1CCN(Cc2ccc([C@H]3COc4ccccc4O3)cc2)CC1` [Example 96, 1-{4-[(2S)-2,3-dihydro-1,4-benzodioxin-2-yl]benzyl}-N-(2-hydroxyethyl)piperidine-4-carboxamide]: the pIC50 was 9.66.

For `C[C@H]1CC[C@H](NCc2ccc([C@H]3COc4ccccc4O3)cc2)CC1` [Example 100, trans-N-{4-[(2S)-2,3-dihydro-1,4-benzodioxin-2-yl]benzyl}-4-methylcyclohexanamine], the pIC50 is 8.63.

In the case of `c1ccc2c(c1)OC[C@H](c1ccc(CNC3CCCOC3)cc1)O2` (stereo partly drawn) [Example 103, N-{4-[(2S)-2,3-dihydro-1,4-benzodioxin-2-yl]benzyl}tetrahydro-2H-pyran-3-amine], the pIC50 was 8.62.

On to `CN(C)CCN(Cc1ccc([C@H]2COc3ccccc3O2)cc1)C1CCCCC1` [Example 104, N-cyclohexyl-N-{4-[(2S)-2,3-dihydro-1,4-benzodioxin-2-yl]benzyl}-N′,N′-dimethylethane-1,2-diamine], for which the pIC50 is 9.74.

Regarding `CC1COCCN1Cc1ccc([C@H]2COc3ccccc3O2)cc1` (stereo partly drawn) [Example 107, 4-{4-[(2S)-2,3-dihydro-1,4-benzodioxin-2-yl]benzyl}-3-methylmorpholine], the pIC50 is 8.87.

With `CN1CC(NCc2ccc([C@H]3COc4ccccc4O3)cc2)CCC1=O` (stereo partly drawn) [Example 108, 5-({4-[(2S)-2,3-dihydro-1,4-benzodioxin-2-yl]benzyl}amino)-1-methylpiperidin-2-one], the pIC50 was 9.06.

Regarding `CN1CCC(N(C)Cc2ccc([C@H]3COc4ccccc4O3)cc2)CC1` [Example 110, N-{4-[(2S)-2,3-dihydro-1,4-benzodioxin-2-yl]benzyl}-N,1-dimethylpiperidin-4-amine], the pIC50 is 8.67.
